The record followed here is patent publication US6743811B2, “Oxazalidinone compounds and methods of preparation and use thereof” (Pharmacia & Upjohn Company, priority 1999, dated 2004).

Tested on in the first data set: not given
Test: not given
On to `CC(=S)NC[C@H]1CN(c2ccc(C(=O)O)c(F)c2)C(=O)O1`, for which the melting point lay within 180 to 182 °C. As to `CC(=S)NC[C@H]1CN(c2ccc(C(=O)Oc3c(F)c(F)c(F)c(F)c3F)c(F)c2)C(=O)O1`, the melting point was in the range of 163 to 164 °C. Turning to `CNC(=O)c1ccc(N2C[C@H](CNC(C)=S)OC2=O)cc1F`, the melting point was 176 to 177 °C. Consider `COC(=O)c1ccc(N2C[C@H](CNC(C)=S)OC2=O)cc1F`, for which the melting point was in the range of 152 to 154 °C.

Regarding `CC(=S)NC[C@H]1CN(c2ccc(N)c(F)c2)C(=O)O1`, the melting point was 137 to 188 °C. The same measure, in the same setting: in the case of `CC(=O)Nc1ccc(N2C[C@H](CNC(C)=S)OC2=O)cc1F` it was 200 to 201 °C; in that of `CC(=S)NC[C@H]1CN(c2ccc(NC(=O)c3ccc([N+](=O)[O-])o3)c(F)c2)C(=O)O1`, 188 °C; in that of `CC(=O)NC[C@H]1CN(c2ccc(NC(=O)c3csnn3)c(F)c2)C(=O)O1`, 233 °C. The compound `CC(=S)NC[C@H]1CN(c2ccc(NC(=O)c3csnn3)c(F)c2)C(=O)O1` came in with a melting point of 203 to 204 °C. `CC(=S)NC[C@H]1CN(c2ccc(N(C)C=S)c(F)c2)C(=O)O1`: the melting point is 103 to 104 °C. In turn, `CC(=S)NC[C@H]1CN(c2ccc(C3=NOCCO3)c(F)c2)C(=O)O1` gave a melting point of 166 to 167 °C.

For `CC(=S)NC[C@H]1CN(c2ccc(C(=O)NN)c(F)c2)C(=O)O1`, the melting point was found to be 177 °C. Compound `CC(=S)NC[C@H]1CN(c2ccc([S+](C)[O-])c(F)c2)C(=O)O1` (stereo partly drawn) came in with a melting point of 158 to 160 °C. In turn, `CC[S+]([O-])c1ccc(N2C[C@H](CNC(C)=S)OC2=O)cc1F` (stereo partly drawn) displayed a melting point of 138 to 139 °C. As for `CC(=S)NC[C@H]1CN(c2ccc([S+]([O-])CCF)c(F)c2)C(=O)O1` (stereo partly drawn), the melting point is 161 °C. `CC(=S)NC[C@H]1CN(c2ccc(S(C)(=O)=O)c(F)c2)C(=O)O1`: the melting point stood at 177 °C. `CC(=S)NC[C@H]1CN(c2ccc(SCCCl)c(F)c2)C(=O)O1`: the melting point lay in the range of 134 to 135 °C. Compound `CC(=S)NC[C@H]1CN(c2ccc(Sc3ncc([N+](=O)[O-])s3)c(F)c2)C(=O)O1` had a melting point of 116 to 117 °C.

The compound `CSc1ccc(N2C[C@H](CNC(C)=S)OC2=O)cc1F` displayed a melting point of 130 to 131 °C.

Another data set has as its system Staphylococcus aureus. As to the kind of experiment: MIC by microdilution method (NCCLS), S. aureus. It is filed as cell-based. How it is done:
Exemplary compounds of formula 1 are as follows. MIC refers to the minimal inhibitory concentration which was determined as described in Example 37.
Minimum inhibitor concentrations (MICs) were determined using the microdilution method according to National Committee for Clinical Laboratory Standards (NCCLS) procedures. Compounds were suspended in DMSO at 10 mg/ml and stored at −20° C. The range of concentrations tested was 64-0.06 μg/ml using two-fold dilutions.
To prepare the inoculum, bacterial cultures were grown overnight at 35° C. on agar plates and each organism was resuspended in 1 ml saline to obtain a 0.5 McFarlands density standard. This was subsequently diluted 1:200 into Mueller-Hinton Broth (MHB) or Haemophilus Test Medium (HTM; for Haemophilus) providing a final inoculum size of 5*10^5 cfu/ml. After inoculation with the bacteria, assay plates were incubated at 35° C. for 18-24 h. […] Gram positive and gram negative strains used included Staphylococcus aureus, Enterococcus faecium, Enterococcus faecalis, Streptococcus pneumoniae, Haemophilus influenzae, Pseudomonas aeruginosa, Escherichia coli, and E. coli (acr)—an efflux pump mutant.
Background: Dilution methods test growth across graded concentrations, often in twofold steps.
`CC(=S)NC[C@H]1CN(c2ccc(N(C)S(C)(=O)=O)c(F)c2)C(=O)O1`: the “MIC (minimal inhibitory concentration)” value is on record as 4-8 Tg/mL.

As to `CSc1ccc(N2C[C@H](CNC(C)=S)OC2=O)cc1F` [drawing 18], the “MIC (minimal inhibitory concentration)” value is given as 4-8 Tg/mL.

As usually defined, the melting point is the temperature of the solid-liquid transition.
